Experimental data from PMC8799717, “Pharmacological targeting PIKfyve and tubulin as an effective treatment strategy for double-hit lymphoma” (Cell Death Discovery, 2022).

How the values were obtained:
Assay in all cases: biochemical
Set-up in all cases: KINOMEscan active-site-directed competition binding panel, 468 kinases, percent of DMSO control at 1 uM
Settings in all cases: KINOMEscan binding, percent of DMSO control; read-out: Ctrl%
[1] = target: T1, ABL1(H396P)-phosphorylated (Homo sapiens, UniProt P00519, H396P)
T1 construct: phosphorylated

[2] = target: T2, ABL1-nonphosphorylated (Homo sapiens, UniProt P00519)
T2 construct: nonphosphorylated

[3] = target: T3, AMPK-alpha2 (Homo sapiens, UniProt P54646)
T3 construct: gene PRKAA2

[4] = target: CDK2 (Homo sapiens, UniProt P24941)
[5] = target: EGFR (Homo sapiens, UniProt P00533)
[6] = target: EGFR(G719S) (Homo sapiens, UniProt P00533, G719S)
[7] = target: EGFR(L747-S752del, P753S) (Homo sapiens, UniProt P00533, DEL747-752/P753S)
[8] = target: EPHA1 (Homo sapiens, UniProt P21709)
[9] = target: T4, FAK (Homo sapiens, UniProt Q05397)
T4 construct: gene PTK2

[10] = target: FGFR4 (Homo sapiens, UniProt P22455)
[11] = target: FLT3 (Homo sapiens, UniProt P36888)
[12] = target: FLT3(D835V) (Homo sapiens, UniProt P36888, D835V)
[13] = target: FYN (Homo sapiens, UniProt P06241)
[14] = target: GRK2 (Homo sapiens, UniProt P25098)
[15] = target: IRAK1 (Homo sapiens, UniProt P51617)
[16] = target: MARK4 (Homo sapiens, UniProt Q96L34)
[17] = target: T5, NDR2 (Homo sapiens, UniProt Q9Y2H1)
T5 construct: gene STK38L

[18] = target: T6, NIM1 (Homo sapiens, UniProt Q8IY84)
T6 construct: gene NIM1K

[19] = target: PIK3CG (Homo sapiens, UniProt P48736)
[20] = target: PKN2 (Homo sapiens, UniProt Q16513)
[21] = target: PRKD1 (Homo sapiens, UniProt Q15139)
[22] = target: T7, RSK4(Kin.Dom.2-C-terminal) (Homo sapiens, UniProt Q9UK32)
T7 construct: gene RPS6KA6; Kin.Dom.2-C-terminal

[23] = target: SGK2 (Homo sapiens, UniProt Q9HBY8)
[24] = target: T8, SIK (Homo sapiens, UniProt P57059)
T8 construct: gene SIK1

PKN2, sequence (Q16513 whole entry): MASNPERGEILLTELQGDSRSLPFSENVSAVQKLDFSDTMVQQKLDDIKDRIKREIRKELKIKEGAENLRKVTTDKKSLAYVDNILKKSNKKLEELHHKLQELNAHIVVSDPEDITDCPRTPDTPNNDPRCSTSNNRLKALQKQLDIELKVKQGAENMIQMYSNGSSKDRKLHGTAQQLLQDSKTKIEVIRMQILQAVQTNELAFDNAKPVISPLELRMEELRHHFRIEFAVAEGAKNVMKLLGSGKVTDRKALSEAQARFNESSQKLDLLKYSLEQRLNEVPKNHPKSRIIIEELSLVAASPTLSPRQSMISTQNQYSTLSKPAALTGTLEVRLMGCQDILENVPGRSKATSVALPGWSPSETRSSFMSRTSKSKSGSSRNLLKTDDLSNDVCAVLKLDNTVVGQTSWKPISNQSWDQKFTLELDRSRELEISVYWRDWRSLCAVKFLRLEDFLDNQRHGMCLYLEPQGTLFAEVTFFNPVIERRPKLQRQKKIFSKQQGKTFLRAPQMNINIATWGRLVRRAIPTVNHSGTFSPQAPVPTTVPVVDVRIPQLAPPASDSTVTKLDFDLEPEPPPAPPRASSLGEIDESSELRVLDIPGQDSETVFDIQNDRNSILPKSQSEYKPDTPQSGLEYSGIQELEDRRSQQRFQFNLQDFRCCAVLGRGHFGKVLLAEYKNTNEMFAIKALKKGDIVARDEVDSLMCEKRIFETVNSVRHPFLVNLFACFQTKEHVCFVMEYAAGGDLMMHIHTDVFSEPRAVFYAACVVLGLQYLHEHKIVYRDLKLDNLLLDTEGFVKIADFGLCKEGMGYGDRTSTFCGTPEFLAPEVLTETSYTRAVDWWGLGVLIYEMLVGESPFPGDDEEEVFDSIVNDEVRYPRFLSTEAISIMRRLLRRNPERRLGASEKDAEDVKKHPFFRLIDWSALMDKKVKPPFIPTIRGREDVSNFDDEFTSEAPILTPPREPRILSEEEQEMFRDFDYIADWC
EGFR(G719S), sequence (P00533 whole entry G719S): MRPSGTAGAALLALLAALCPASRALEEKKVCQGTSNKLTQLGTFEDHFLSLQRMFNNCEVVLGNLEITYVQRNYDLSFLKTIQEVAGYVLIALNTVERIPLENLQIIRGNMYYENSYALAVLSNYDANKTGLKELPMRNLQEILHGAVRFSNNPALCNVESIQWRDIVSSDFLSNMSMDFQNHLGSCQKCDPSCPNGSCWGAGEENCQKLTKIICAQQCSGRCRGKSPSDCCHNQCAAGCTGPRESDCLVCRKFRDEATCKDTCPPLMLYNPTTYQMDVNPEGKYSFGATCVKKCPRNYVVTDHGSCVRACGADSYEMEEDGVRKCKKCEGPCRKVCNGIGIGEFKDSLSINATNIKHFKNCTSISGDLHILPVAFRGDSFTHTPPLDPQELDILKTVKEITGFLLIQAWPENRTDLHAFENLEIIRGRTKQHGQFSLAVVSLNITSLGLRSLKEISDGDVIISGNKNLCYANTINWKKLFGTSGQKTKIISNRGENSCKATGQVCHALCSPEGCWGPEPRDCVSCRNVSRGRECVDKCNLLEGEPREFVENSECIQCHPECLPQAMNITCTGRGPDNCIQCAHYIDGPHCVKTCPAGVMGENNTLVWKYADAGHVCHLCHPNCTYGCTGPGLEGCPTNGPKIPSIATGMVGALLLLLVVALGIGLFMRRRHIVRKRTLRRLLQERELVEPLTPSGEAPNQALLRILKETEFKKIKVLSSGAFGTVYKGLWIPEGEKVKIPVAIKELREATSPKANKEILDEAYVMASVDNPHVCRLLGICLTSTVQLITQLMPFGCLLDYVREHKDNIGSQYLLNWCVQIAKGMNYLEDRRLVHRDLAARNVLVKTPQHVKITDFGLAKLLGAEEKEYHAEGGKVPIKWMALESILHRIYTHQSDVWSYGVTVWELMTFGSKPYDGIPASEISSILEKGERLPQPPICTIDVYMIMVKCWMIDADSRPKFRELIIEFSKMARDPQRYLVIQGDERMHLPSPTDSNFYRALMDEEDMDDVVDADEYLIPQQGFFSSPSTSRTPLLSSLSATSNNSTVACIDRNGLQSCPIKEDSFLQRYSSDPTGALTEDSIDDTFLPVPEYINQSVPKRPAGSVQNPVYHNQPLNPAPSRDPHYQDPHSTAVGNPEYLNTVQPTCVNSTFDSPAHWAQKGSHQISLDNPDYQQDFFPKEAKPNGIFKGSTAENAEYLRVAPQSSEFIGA
EPHA1, sequence (P21709 whole entry): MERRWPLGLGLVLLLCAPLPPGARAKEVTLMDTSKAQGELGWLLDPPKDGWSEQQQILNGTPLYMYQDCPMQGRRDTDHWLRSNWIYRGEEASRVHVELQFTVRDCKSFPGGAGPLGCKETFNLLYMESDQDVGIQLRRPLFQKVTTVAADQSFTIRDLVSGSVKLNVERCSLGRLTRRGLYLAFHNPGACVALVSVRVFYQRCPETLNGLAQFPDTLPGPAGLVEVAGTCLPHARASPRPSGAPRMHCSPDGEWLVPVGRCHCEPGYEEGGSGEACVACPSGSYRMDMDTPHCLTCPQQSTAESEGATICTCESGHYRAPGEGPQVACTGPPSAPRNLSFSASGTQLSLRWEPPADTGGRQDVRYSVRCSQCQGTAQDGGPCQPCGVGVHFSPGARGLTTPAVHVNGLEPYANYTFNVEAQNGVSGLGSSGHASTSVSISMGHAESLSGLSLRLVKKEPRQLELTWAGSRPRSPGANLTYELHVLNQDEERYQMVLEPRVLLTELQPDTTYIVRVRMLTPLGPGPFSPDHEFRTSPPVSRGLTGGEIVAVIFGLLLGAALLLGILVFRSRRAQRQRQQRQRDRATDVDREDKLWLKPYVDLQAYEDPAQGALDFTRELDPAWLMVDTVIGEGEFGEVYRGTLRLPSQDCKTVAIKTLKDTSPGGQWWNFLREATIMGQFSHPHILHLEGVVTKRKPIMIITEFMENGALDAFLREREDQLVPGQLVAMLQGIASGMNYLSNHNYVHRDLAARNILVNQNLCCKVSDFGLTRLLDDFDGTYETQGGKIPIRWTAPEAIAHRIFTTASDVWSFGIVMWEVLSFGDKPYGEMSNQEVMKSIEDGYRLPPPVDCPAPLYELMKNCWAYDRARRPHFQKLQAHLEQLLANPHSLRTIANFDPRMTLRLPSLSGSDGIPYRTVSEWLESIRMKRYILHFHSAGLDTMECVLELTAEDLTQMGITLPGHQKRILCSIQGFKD
PRKD1, sequence (Q15139 whole entry): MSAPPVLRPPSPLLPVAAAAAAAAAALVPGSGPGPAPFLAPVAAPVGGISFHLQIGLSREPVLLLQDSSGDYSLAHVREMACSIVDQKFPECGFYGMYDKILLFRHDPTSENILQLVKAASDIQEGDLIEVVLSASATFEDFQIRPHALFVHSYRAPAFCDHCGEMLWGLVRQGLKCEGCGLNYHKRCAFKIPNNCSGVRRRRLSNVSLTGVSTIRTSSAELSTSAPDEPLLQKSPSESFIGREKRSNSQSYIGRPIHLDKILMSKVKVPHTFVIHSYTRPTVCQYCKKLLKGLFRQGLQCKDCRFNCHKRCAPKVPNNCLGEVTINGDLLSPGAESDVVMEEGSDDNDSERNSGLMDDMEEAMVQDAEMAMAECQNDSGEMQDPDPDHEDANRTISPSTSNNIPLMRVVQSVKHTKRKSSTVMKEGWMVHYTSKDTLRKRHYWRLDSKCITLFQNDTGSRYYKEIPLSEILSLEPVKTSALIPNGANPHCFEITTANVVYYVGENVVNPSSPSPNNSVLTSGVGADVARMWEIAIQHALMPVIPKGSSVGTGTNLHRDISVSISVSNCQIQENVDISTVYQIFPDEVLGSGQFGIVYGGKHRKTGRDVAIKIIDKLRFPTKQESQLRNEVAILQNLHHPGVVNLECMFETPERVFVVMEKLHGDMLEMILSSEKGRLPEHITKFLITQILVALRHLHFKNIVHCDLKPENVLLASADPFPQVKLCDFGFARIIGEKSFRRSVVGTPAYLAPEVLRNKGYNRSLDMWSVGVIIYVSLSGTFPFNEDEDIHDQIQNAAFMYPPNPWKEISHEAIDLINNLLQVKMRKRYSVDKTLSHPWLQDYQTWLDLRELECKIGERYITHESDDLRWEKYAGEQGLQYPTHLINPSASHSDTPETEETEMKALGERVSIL
T7 sequence (Q9UK32 whole entry): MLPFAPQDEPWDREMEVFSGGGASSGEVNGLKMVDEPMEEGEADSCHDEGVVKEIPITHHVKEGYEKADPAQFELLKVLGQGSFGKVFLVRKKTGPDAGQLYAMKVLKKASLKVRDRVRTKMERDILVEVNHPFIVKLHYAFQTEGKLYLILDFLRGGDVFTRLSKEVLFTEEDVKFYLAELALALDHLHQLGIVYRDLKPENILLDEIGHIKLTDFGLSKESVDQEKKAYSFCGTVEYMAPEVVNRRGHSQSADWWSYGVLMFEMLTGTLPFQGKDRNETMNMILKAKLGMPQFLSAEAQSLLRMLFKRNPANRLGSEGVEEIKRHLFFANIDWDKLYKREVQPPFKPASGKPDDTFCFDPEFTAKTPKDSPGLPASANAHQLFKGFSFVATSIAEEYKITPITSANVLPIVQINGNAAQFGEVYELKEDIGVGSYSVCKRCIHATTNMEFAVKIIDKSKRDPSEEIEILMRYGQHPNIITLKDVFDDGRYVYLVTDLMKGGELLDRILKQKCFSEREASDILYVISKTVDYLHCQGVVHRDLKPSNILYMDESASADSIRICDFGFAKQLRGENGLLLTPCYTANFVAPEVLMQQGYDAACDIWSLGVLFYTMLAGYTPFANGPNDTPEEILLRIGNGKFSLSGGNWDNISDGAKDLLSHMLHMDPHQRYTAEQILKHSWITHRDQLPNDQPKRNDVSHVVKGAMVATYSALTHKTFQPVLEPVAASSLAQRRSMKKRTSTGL

Work on `Cc1ccc(NC(=O)c2cccc(C(F)(F)F)c2)cc1Nc1cc(-c2cccnc2)nc2[nH]ccc12` [HZX-02-059] yielded a remaining binding at 1 µM [1] of 84%, a remaining binding at 1 µM [2] of 14% and a remaining binding at 1 µM [3] of 90%. For the same compound, the remaining binding at 1 µM [4] was 96%, the remaining binding at 1 µM [5] was 67% and the remaining binding at 1 µM [6] was 97%. It also gave a remaining binding at 1 µM [7] of 80%, a remaining binding at 1 µM [8] of 78% and a remaining binding at 1 µM [9] of 98%. The remaining binding at 1 µM [10] was 91%, the remaining binding at 1 µM [11] was 91% and the remaining binding at 1 µM [12] was 100%. For the same compound, the remaining binding at 1 µM [13] was 85%, the remaining binding at 1 µM [14] was 100% and the remaining binding at 1 µM [15] was 100%. For the same compound, the remaining binding at 1 µM [16] was 100%, the remaining binding at 1 µM [17] was 94% and the remaining binding at 1 µM [18] was 99%. The remaining binding at 1 µM [19] was 96%, the remaining binding at 1 µM [20] was 100% and the remaining binding at 1 µM [21] was 96%. It also gave a remaining binding at 1 µM [22] of 97%, a remaining binding at 1 µM [23] of 99% and a remaining binding at 1 µM [24] of 90%.
